The target of the experiment is T1, Neuropeptide Y receptor type 1 (Rattus norvegicus, UniProt P21555).
T1 sequence (P21555 whole entry): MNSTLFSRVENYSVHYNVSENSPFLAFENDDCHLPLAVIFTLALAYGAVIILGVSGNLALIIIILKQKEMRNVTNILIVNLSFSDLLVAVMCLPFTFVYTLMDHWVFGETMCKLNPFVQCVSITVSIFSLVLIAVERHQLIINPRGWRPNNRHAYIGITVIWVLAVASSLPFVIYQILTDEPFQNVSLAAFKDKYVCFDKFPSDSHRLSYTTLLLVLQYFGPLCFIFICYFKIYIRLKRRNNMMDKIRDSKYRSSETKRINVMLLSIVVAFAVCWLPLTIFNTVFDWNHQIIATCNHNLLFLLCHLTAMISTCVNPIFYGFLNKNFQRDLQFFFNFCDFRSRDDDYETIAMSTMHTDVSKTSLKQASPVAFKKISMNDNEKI

Positions of bridges follow the written chain, without caps; N, C: chain ends. Non-standard residues stand in square brackets, D forms with d. Residues, ends and D or L forms follow the SMILES beside them. Chains are numbered I, II in the order given. Dap = NC[C@H](N)C(=O)O

As usually defined, the Ki is a dissociation constant, usually derived from enzyme kinetics or from competition with a known ligand. Low values mean higher affinity, high ones lower affinity. `CC[C@H](C)[C@H](N)C(=O)N[C@H]1CCC(=O)NC[C@@H](C(=O)N[C@@H](Cc2ccc(O)cc2)C(=O)N[C@@H](CCCN=C(N)N)C(=O)N[C@@H](CC(C)C)C(=O)N[C@@H](CCCN=C(N)N)C(=O)N[C@@H](Cc2ccc(O)cc2)C(N)=O)NC(=O)[C@@H]2CCCN2C(=O)[C@@H](NC(=O)[C@@H](N)[C@@H](C)CC)CCC(=O)NC[C@@H](C(=O)N[C@@H](Cc2ccc(O)cc2)C(=O)N[C@@H](CCCN=C(N)N)C(=O)N[C@@H](CC(C)C)C(=O)N[C@@H](CCCN=C(N)N)C(=O)N[C@@H](Cc2ccc(O)cc2)C(N)=O)NC(=O)[C@@H]2CCCN2C1=O` [1229U91] (I: H-IEP[Dap]YRLRY-NH2 / II: H-IEP[Dap]YRLRY-NH2; amide I:2-II:4, I:4-II:2): the affinity corresponds to a Ki of 12.6 nM.
